Inconclusive results and toxic doses are left out.
Tested on: P388 leukemia ip, CD2F1 mice, survival T/C
Test: NCI In Vivo Anticancer Drug Screen. Data for tumor model P388 Leukemia (intraperitoneal) in CD2F1 (CDF1) mice
Details: endpoint: median survival time, higher = longer survival
Procedure, shortened: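 Mice carrying the transplanted tumor received test compound or vehicle. Survival was recorded in each group, and the value is the treated-group measurement divided by that of the vehicle-treated control group.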

[1] = dose: 60.0 mg/kg/injection, schedule: Q01DX005 (ip), vehicle: saline with Tween-80
[2] = dose: 120.0 mg/kg/injection, schedule: Q01DX005 (ip), vehicle: saline with Tween-80
[3] = dose: 240.0 mg/kg/injection, schedule: Q01DX005 (ip), vehicle: saline with Tween-80
[4] = dose: 25.0 mg/kg/injection, schedule: Q01DX005 (ip), vehicle: saline with Tween-80
[5] = dose: 50.0 mg/kg/injection, schedule: Q01DX005 (ip), vehicle: saline with Tween-80
[6] = dose: 100.0 mg/kg/injection, schedule: Q04DX003 (ip), vehicle: Klucel (hydroxypropylcellulose) (HPC)
[7] = dose: 100.0 mg/kg/injection, schedule: Q01DX001 (ip), vehicle: saline with Tween-80
[8] = dose: 200.0 mg/kg/injection, schedule: Q01DX001 (ip), vehicle: saline with Tween-80
[9] = dose: 25.0 mg/kg/injection, schedule: Q01DX009 (ip), vehicle: saline with Tween-80
[10] = dose: 50.0 mg/kg/injection, schedule: Q01DX009 (ip), vehicle: saline with Tween-80
[11] = dose: 50.0 mg/kg/injection, schedule: Q01DX005 (ip), vehicle: saline
[12] = dose: 100.0 mg/kg/injection, schedule: Q01DX005 (ip), vehicle: saline
[13] = dose: 50.0 mg/kg/injection, schedule: Q01DX009 (ip), vehicle: saline
[14] = dose: 50.0 mg/kg/injection, schedule: Q01DX005 (ip), vehicle: water

O=c1oc2ccccc2cc1-n1nnc2cc([N+](=O)[O-])ccc21
T/C [1]: 91 % of control
T/C [2]: 89 % of control
T/C [3]: 99 % of control

CC1=C(/C=C/C(C)=C/C=C/C(C)=C/C(=O)Nc2ccc(O)cc2)C(C)(C)CCC1
T/C [4]: 97 % of control
T/C [5]: 90 % of control

Cc1n[nH]c(=O)[nH]c1=O
T/C [6]: 100 % of control
T/C (dose: 200.0 mg/kg/injection, schedule: Q04DX003 (ip), vehicle: Klucel (hydroxypropylcellulose) (HPC)): 100 % of control
T/C (dose: 400.0 mg/kg/injection, schedule: Q04DX003 (ip), vehicle: Klucel (hydroxypropylcellulose) (HPC)): 90 % of control

C=C1C(=O)OC2C=CCCCC12 (centres undefined)
T/C (dose: 50.0 mg/kg/injection, schedule: Q01DX001 (ip), vehicle: saline with Tween-80): 105 % of control
T/C [7]: 102 % of control

CNC1C(O)C2Oc3c(cc(O)c4c3C(=O)c3cc5c(c(O)c3C4=O)C(OC3OC(C)C(OC)C(C)(OC)C3OC)CC(C)(O)C5C(=O)OC)C(C)(O2)C1O (centres undefined)
T/C (dose: 3.12 mg/kg/injection, schedule: Q04DX003 (ip), vehicle: other): 99 % of control
T/C (dose: 6.25 mg/kg/injection, schedule: Q04DX003 (ip), vehicle: other): 115 % of control
T/C (dose: 12.5 mg/kg/injection, schedule: Q04DX003 (ip), vehicle: other): 150 % of control
T/C (dose: 25.0 mg/kg/injection, schedule: Q04DX003 (ip), vehicle: other): 160 % of control

O=C(NC1CCCCC1)OCC1OC(n2cnc3c(=O)[nH]cnc32)C(OC(=O)NC2CCCCC2)C1OC(=O)NC1CCCCC1 (centres undefined)
T/C (dose: 6.25 mg/kg/injection, schedule: Q01DX005 (ip), vehicle: saline with Tween-80): 98 % of control
T/C (dose: 12.5 mg/kg/injection, schedule: Q01DX005 (ip), vehicle: saline with Tween-80): 90 % of control
T/C [4]: 90 % of control

CNC1=C(C)C(=O)C(C)=C(C(C)(C)CC(=O)n2cc(F)c(=O)[nH]c2=O)C1=O
T/C [7]: 117 % of control
T/C [8]: 122 % of control

Cc1cc(N)c2ccccc2c1O
T/C (dose: 12.5 mg/kg/injection, schedule: Q01DX009 (ip), vehicle: saline with Tween-80): 110 % of control
T/C [9]: 124 % of control
T/C [10]: 108 % of control

COC(=O)C1=NOC2C(=O)N(c3ccccc3)C(=O)C12 (centres undefined)
T/C [5]: 96 % of control
T/C (dose: 100.0 mg/kg/injection, schedule: Q01DX005 (ip), vehicle: saline with Tween-80): 101 % of control

CC(C)(C)OC(=O)N1CC(O)CC1C(=O)O (centres undefined)
T/C [11]: 91 % of control
T/C [12]: 91 % of control

O=c1[nH]oc2c1CCNC2
T/C (dose: 100.0 mg/kg/injection, schedule: Q04DX003 (ip), vehicle: saline): 98 % of control
T/C (dose: 200.0 mg/kg/injection, schedule: Q04DX003 (ip), vehicle: saline): 103 % of control

COc1ccc(-c2cc3cc(OC)c(OC)cc3cn2)cc1OC
T/C (dose: 6.25 mg/kg/injection, schedule: Q01DX009 (ip), vehicle: suspension in saline): 99 % of control
T/C (dose: 12.5 mg/kg/injection, schedule: Q01DX009 (ip), vehicle: suspension in saline): 98 % of control
T/C (dose: 25.0 mg/kg/injection, schedule: Q01DX009 (ip), vehicle: saline): 98 % of control
T/C (dose: 25.0 mg/kg/injection, schedule: Q01DX009 (ip), vehicle: suspension in saline): 97 % of control
T/C [13]: 90 % of control

O=c1c2ccccc2on1CN1CCN(Cn2oc3ccccc3c2=O)CC1
T/C [14]: 106 % of control
T/C (dose: 100.0 mg/kg/injection, schedule: Q01DX005 (ip), vehicle: water): 108 % of control
T/C (dose: 200.0 mg/kg/injection, schedule: Q01DX005 (ip), vehicle: water): 111 % of control

Cc1ccccc1SSc1ccccc1C
T/C [10]: 113 % of control

NC1CNC(=O)NC1=O (centres undefined)
T/C [11]: 101 % of control
T/C [12]: 100 % of control
T/C (dose: 200.0 mg/kg/injection, schedule: Q01DX005 (ip), vehicle: saline): 101 % of control

NC(=S)c1cccc(C=Nc2ccccc2)n1
T/C (dose: 12.5 mg/kg/injection, schedule: Q04DX003 (ip), vehicle: Klucel (hydroxypropylcellulose) (HPC)): 106 % of control
T/C (dose: 25.0 mg/kg/injection, schedule: Q04DX003 (ip), vehicle: Klucel (hydroxypropylcellulose) (HPC)): 105 % of control
T/C (dose: 50.0 mg/kg/injection, schedule: Q04DX003 (ip), vehicle: Klucel (hydroxypropylcellulose) (HPC)): 97 % of control
T/C [6]: 91 % of control

[CH3][Sn]([CH3])([CH3])[N]=C=[N][Sn]([CH3])([CH3])[CH3]
T/C (dose: 0.4 mg/kg/injection, schedule: Q01DX005 (ip), vehicle: saline): 100 % of control
T/C (dose: 0.8 mg/kg/injection, schedule: Q01DX005 (ip), vehicle: saline): 101 % of control

N=c1c2c(C(N)=O)cn(C3OC(CO)C(O)C3O)c2ncn1N (centres undefined)
T/C [14]: 166 % of control

COc1ccc(C(CCOS(=O)(=O)c2ccc(Br)cc2)(c2ccc(OC)cc2)c2ccc(OC)cc2)cc1
T/C [1]: 93 % of control
T/C [2]: 93 % of control
T/C [3]: 87 % of control

O=[N+]([O-])c1ccc(N2CCN(c3ccccc3)CC2)c2c1no[n+]2[O-]
T/C (dose: 37.5 mg/kg/injection, schedule: Q04DX003 (ip), vehicle: saline): 105 % of control
T/C (dose: 37.5 mg/kg/injection, schedule: Q04DX003 (ip), vehicle: suspension in saline): 104 % of control
T/C (dose: 75.0 mg/kg/injection, schedule: Q04DX003 (ip), vehicle: saline): 100 % of control
T/C (dose: 75.0 mg/kg/injection, schedule: Q04DX003 (ip), vehicle: suspension in saline): 100 % of control
T/C (dose: 150.0 mg/kg/injection, schedule: Q04DX003 (ip), vehicle: saline): 97 % of control
T/C (dose: 150.0 mg/kg/injection, schedule: Q04DX003 (ip), vehicle: suspension in saline): 111 % of control
T/C (dose: 300.0 mg/kg/injection, schedule: Q04DX003 (ip), vehicle: saline): 101 % of control
T/C (dose: 300.0 mg/kg/injection, schedule: Q04DX003 (ip), vehicle: suspension in saline): 104 % of control

CC(=O)c1ccc(NC(O)C(Cl)(Cl)Cl)cc1 (centres undefined)
T/C [9]: 99 % of control
T/C [10]: 96 % of control
T/C (dose: 100.0 mg/kg/injection, schedule: Q01DX009 (ip), vehicle: saline with Tween-80): 103 % of control
T/C (dose: 200.0 mg/kg/injection, schedule: Q01DX009 (ip), vehicle: saline with Tween-80): 107 % of control

O=C(O)Cn1/c(=N\N=C\c2ccc([N+](=O)[O-])cc2)sc2ccccc21
T/C [7]: 91 % of control
T/C [8]: 89 % of control
T/C (dose: 400.0 mg/kg/injection, schedule: Q01DX001 (ip), vehicle: saline with Tween-80): 99 % of control

CCCCN(CCCC)c1ccc(C(=N)c2ccc(N(C)C)cc2)cc1
T/C (dose: 6.25 mg/kg/injection, schedule: Q01DX005 (ip), vehicle: Klucel (hydroxypropylcellulose) (HPC)): 106 % of control
T/C (dose: 12.5 mg/kg/injection, schedule: Q01DX005 (ip), vehicle: Klucel (hydroxypropylcellulose) (HPC)): 106 % of control

O=C(OC1CC2CCCCC2CC1(O)c1ccccc1)c1cccc(Cl)c1 (centres undefined)
T/C (dose: 100.0 mg/kg/injection, schedule: Q01DX001 (ip), vehicle: acetone): 99 % of control
T/C (dose: 200.0 mg/kg/injection, schedule: Q01DX001 (ip), vehicle: acetone): 103 % of control
T/C (dose: 400.0 mg/kg/injection, schedule: Q01DX001 (ip), vehicle: acetone): 104 % of control

CCC(C)Nc1c(N)cc(C(F)(F)F)cc1N (centres undefined)
T/C (dose: 60.0 mg/kg/injection, schedule: Q01DX005 (ip), vehicle: Klucel (hydroxypropylcellulose) (HPC)): 98 % of control
T/C (dose: 120.0 mg/kg/injection, schedule: Q01DX005 (ip), vehicle: Klucel (hydroxypropylcellulose) (HPC)): 97 % of control
T/C (dose: 240.0 mg/kg/injection, schedule: Q01DX005 (ip), vehicle: Klucel (hydroxypropylcellulose) (HPC)): 99 % of control

c1cc(-c2nn[nH]n2)ccc1NNc1ccc(-c2nn[nH]n2)cc1
T/C (dose: 50.0 mg/kg/injection, schedule: Q01DX001 (ip), vehicle: Klucel (hydroxypropylcellulose) (HPC)): 101 % of control
T/C (dose: 100.0 mg/kg/injection, schedule: Q01DX001 (ip), vehicle: Klucel (hydroxypropylcellulose) (HPC)): 105 % of control
T/C (dose: 200.0 mg/kg/injection, schedule: Q01DX001 (ip), vehicle: Klucel (hydroxypropylcellulose) (HPC)): 98 % of control

Cc1cc(Nc2ccccc2C(=O)N/N=C/c2ccc(N(CCCl)CCCl)cc2)nc2ccc(Cl)cc12
T/C [13]: 95 % of control
T/C (dose: 100.0 mg/kg/injection, schedule: Q01DX009 (ip), vehicle: saline): 90 % of control
T/C (dose: 200.0 mg/kg/injection, schedule: Q01DX009 (ip), vehicle: saline): 95 % of control

From PubChem BioAssay AID330 (DTP/NCI, 2004)
